Assay results taken from US11000033B2, “Ketone or oxime compound, and herbicide” (NISSAN CHEMICAL CORPORATION, priority 2014, dated 2021).

Assays:
Type in all cases: in vivo
[1] = tested on: Chenopodium album; assay: Test Example 5: herbicidal effect by foliage application, plastic box (symbol O); details: 320 g/ha, 3 weeks after application
In short: (§1)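 After sowing into sterilized diluvial soil and growing two weeks under glass at 25° C. to 30° C., seedlings receive a uniform foliar spray of diluted emulsion. Damage is judged visually three weeks on.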

[2] = tested on: Veronica persica; assay: Test Example 4: herbicidal effect by soil treatment (symbol R)
In short: (§2)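 Seeds were sown in sterilized diluvial soil, covered with about 1.5 cm of soil, and the soil surface was sprayed with a water-diluted emulsion of the compound at a predetermined rate. Plants grew in a greenhouse at 25° C. to 30° C.; effects were scored visually 3 weeks after application.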

[3] = tested on: Monochoria vaginalis; assay: Test Example 1: herbicidal activity, application before weed generation in submerged conditions (symbol C); details: application herbicide amount 320 g/ha
In short: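 Scores run 0 to 5 by herbicidal ratio, with 5 meaning 90% or more and 0 meaning 5% or lower, read 3 weeks after treatment. Compound was applied as a diluted emulsion to the water surface of submerged alluvial-soil pots on the day weed seeds were sown.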

[4] = tested on: rapeseed; assay: Test Example 4: effect on crop by soil treatment (symbol g)
In short: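 Seeds were sown in spots on sterilized diluvial soil in a plastic box and covered with about 1.5 cm of soil. Plants were then grown in a greenhouse at 25° C. to 30° C.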

[5] = tested on: Setaria viridis; assay: Test Example 4: herbicidal effect by soil treatment (symbol G)
In short: as §2

[6] = tested on: Amaranthus retroflexus; assay: Test Example 5: herbicidal effect by foliage application, plastic box (symbol N); details: 320 g/ha, 3 weeks after application
In short: as §1

[7] = tested on: Veronica persica; assay: Test Example 5: herbicidal effect by foliage application, plastic box (symbol R); details: 320 g/ha, 3 weeks after application
In short: as §1

[8] = application herbicide amount 320 g/ha

Row | Compound | O: Chenopodium album, herbicidal effect grade [1] | R (Veronica persica) herbicidal effect grade [2, 8] | Herbicidal effect grade, C: Monochoria vaginalis [3] | g (rapeseed) effect on crop grade [4, 8] | G (Setaria viridis) herbicidal effect grade [5, 8] | N: Amaranthus retroflexus, herbicidal effect grade [6] | R: Veronica persica, herbicidal effect grade ([2]; 320 g/ha) | g: rapeseed, effect grade on crop ([4]; 320 g/ha) | G: Setaria viridis, herbicidal effect grade ([5]; 320 g/ha) | R: Veronica persica, herbicidal effect (criteria 0-5) [7] | N: Amaranthus retroflexus, herbicidal effect (criteria 0-5) [6] | R: Veronica persica, herbicidal effect grade [7] | Herbicidal effect grade, R: Veronica persica [2, 8] | Effect on crop grade, g: rapeseed [4, 8] | Herbicidal effect grade, G: Setaria viridis [5, 8]
1 | CC(CC1CC(O)=C(c2c(C)cc(C)cc2C)C1=O)=NOCC=CCl (centres unmarked) [1-056] | 1 (Herbicidal ratio of 5% or higher and lower than 20%) | 0 (Herbicidal ratio of 5% or lower (almost no effect)) | 4 (Herbicidal ratio of 70% or higher and lower than 90%) | 4 (Herbicidal ratio of 70% or higher and lower than 90%) | 5 (Herbicidal ratio of 90% or more (almost completely withered)) | 2 (Herbicidal ratio of 20% or higher and lower than 40%) | – | – | – | – | – | – | – | – | –
2 | CON=C(CC1CC(O)=C(c2c(C)cc(C)cc2C)C1=O)C1CCCC1 (centres unmarked) [1-078] | – | – | 0 (Herbicidal ratio of 5% or lower (almost no effect)) | – | – | – | 0 (Herbicidal ratio of 5% or lower (almost no effect)) | 1 (Herbicidal ratio of 5% or higher and lower than 20%) | 5 (Herbicidal ratio of 90% or more (almost completely withered)) | 0 (Herbicidal ratio of 5% or lower (almost no effect)) | 0 (Herbicidal ratio of 5% or lower (almost no effect)) | – | – | – | –
3 | CON=C(C)CC1CC(OC(=O)C2(C)CC2(Cl)Cl)=C(c2c(C)cc(C)cc2C)C1=O (centres unmarked) [1-036] | 2 (Herbicidal ratio of 20% or higher and lower than 40%) | – | 1 (Herbicidal ratio of 5% or higher and lower than 20%) | 5 (Herbicidal ratio of 90% or more (almost completely withered)) | 5 (Herbicidal ratio of 90% or more (almost completely withered)) | 4 (Herbicidal ratio of 70% or higher and lower than 90%) | – | – | – | – | – | – | – | – | –
4 | CON=C(C)CC1CC(OC(=O)COc2ccc(F)cc2)=C(c2c(C)cc(C)cc2C)C1=O (centres unmarked) [1-073] | – | – | 1 (Herbicidal ratio of 5% or higher and lower than 20%) | 4 (Herbicidal ratio of 70% or higher and lower than 90%) | 5 (Herbicidal ratio of 90% or more (almost completely withered)) | – | – | – | – | 3 (Herbicidal ratio of 40% or higher and lower than 70%) | 2 (Herbicidal ratio of 20% or higher and lower than 40%) | – | – | – | –
5 | COCCON=C(C)CC1CC(O)=C(c2c(C)cc(C)cc2C)C1=O (centres unmarked) [1-041] | 3 (Herbicidal ratio of 40% or higher and lower than 70%) | 3 (Herbicidal ratio of 40% or higher and lower than 70%) | 0 (Herbicidal ratio of 5% or lower (almost no effect)) | 4 (Herbicidal ratio of 70% or higher and lower than 90%) | 5 (Herbicidal ratio of 90% or more (almost completely withered)) | 3 (Herbicidal ratio of 40% or higher and lower than 70%) | – | – | – | – | – | 3 (Herbicidal ratio of 40% or higher and lower than 70%) | – | – | –
6 | CON=C(CC1CC(O)=C(c2c(C)cc(Br)cc2C)C1=O)C(C)C (centres unmarked) [9-001] | 0 (Herbicidal ratio of 5% or lower (almost no effect)) | – | 0 (Herbicidal ratio of 5% or lower (almost no effect)) | – | – | 0 (Herbicidal ratio of 5% or lower (almost no effect)) | – | – | – | – | – | 0 (Herbicidal ratio of 5% or lower (almost no effect)) | 0 (Herbicidal ratio of 5% or lower (almost no effect)) | 0 (Herbicidal ratio of 5% or lower (almost no effect)) | 4 (Herbicidal ratio of 70% or higher and lower than 90%)
7 | CON=C(C)CC1CC(OC(=O)C(C)(C)F)=C(c2c(C)cc(C)cc2C)C1=O (centres unmarked) [1-039] | – | – | 2 (Herbicidal ratio of 20% or higher and lower than 40%) | 4 (Herbicidal ratio of 70% or higher and lower than 90%) | 5 (Herbicidal ratio of 90% or more (almost completely withered)) | 4 (Herbicidal ratio of 70% or higher and lower than 90%) | – | – | – | – | – | – | – | – | –
8 | CON=C(C)CC1CC(OC(=O)COc2ccc(Cl)cc2)=C(c2c(C)cc(C)cc2C)C1=O (centres unmarked) [1-044] | – | – | 4 (Herbicidal ratio of 70% or higher and lower than 90%) | 4 (Herbicidal ratio of 70% or higher and lower than 90%) | 5 (Herbicidal ratio of 90% or more (almost completely withered)) | 2 (Herbicidal ratio of 20% or higher and lower than 40%) | – | – | – | – | – | 0 (Herbicidal ratio of 5% or lower (almost no effect)) | – | – | –
9 | CON=CC(C)(C)C1CC(O)=C(c2c(C)cc(C)cc2C)C1=O (centres unmarked) [1-030] | 0 (Herbicidal ratio of 5% or lower (almost no effect)) | – | 0 (Herbicidal ratio of 5% or lower (almost no effect)) | 0 (Herbicidal ratio of 5% or lower (almost no effect)) | 2 (Herbicidal ratio of 20% or higher and lower than 40%) | 0 (Herbicidal ratio of 5% or lower (almost no effect)) | – | – | – | – | – | 0 (Herbicidal ratio of 5% or lower (almost no effect)) | – | – | –
10 | CSCCON=C(C)CC1CC(O)=C(c2c(C)cc(C)cc2C)C1=O (centres unmarked) [1-029] | 3 (Herbicidal ratio of 40% or higher and lower than 70%) | – | 0 (Herbicidal ratio of 5% or lower (almost no effect)) | 3 (Herbicidal ratio of 40% or higher and lower than 70%) | 5 (Herbicidal ratio of 90% or more (almost completely withered)) | 0 (Herbicidal ratio of 5% or lower (almost no effect)) | – | – | – | – | – | 1 (Herbicidal ratio of 5% or higher and lower than 20%) | – | – | –
11 | CON=C(C)C(C)C1CC(O)=C(c2c(C)cc(C)cc2C)C1=O (centres unmarked) [1-032] | 3 (Herbicidal ratio of 40% or higher and lower than 70%) | – | 3 (Herbicidal ratio of 40% or higher and lower than 70%) | 5 (Herbicidal ratio of 90% or more (almost completely withered)) | 5 (Herbicidal ratio of 90% or more (almost completely withered)) | 3 (Herbicidal ratio of 40% or higher and lower than 70%) | – | – | – | – | – | – | – | – | –
12 | CON=C(CC1CC(O)=C(c2c(C)cc(C)cc2C)C1=O)c1ccccn1 (centres unmarked) [1-045] | 0 (Herbicidal ratio of 5% or lower (almost no effect)) | – | 0 (Herbicidal ratio of 5% or lower (almost no effect)) | 0 (Herbicidal ratio of 5% or lower (almost no effect)) | 0 (Herbicidal ratio of 5% or lower (almost no effect)) | 0 (Herbicidal ratio of 5% or lower (almost no effect)) | – | – | – | – | – | 0 (Herbicidal ratio of 5% or lower (almost no effect)) | – | – | –
